Laboratory results reported in patent US20230390250A1, “MODULATION OF GLUCAGON-LIKE PEPTIDE 1 AND USES THEREOF” (priority 2020, published 2023).
“Also recorded” adds a separate entry of the source. Read-outs that look alike come from different tables or passages of the source.

How the values were obtained:
[1] = test system: GLUTag cells; experiment: GLP-1 secretion from cultured GLUTag cells treated with LPA and/or LPAR antagonist; type: cell-based, mouse; conditions: for decrease in GLP-1 secretion / level caused by LPA (fraction): 2-2.5 h; for effect of LPAR antagonist alone on GLP-1 levels: 10 μM antagonist alone, 2 h; for rescue of LPA-inhibited GLP-1 secretion by LPAR antagonist: 10 μM antagonist plus 2.5 μM LPA
Procedure: We have grown GLUTag cells in culture to test effects of various LPA species and the LPAR 1/2/3 inhibitor Ki-16425. GLUTag cells are a well characterized L-cell line derived from a mouse intestinal tumour, which have been widely used to study the regulation of GLP-1. Briefly, GLUTag cells were grown until 80-90% confluent. Complete medium, containing fetal bovine serum, was replaced with medium containing charcoal[…] dextran treated serum, which removes lipids and hormones that could interfere with testing. […] This indicates a direct inhibitory effect of LPA at physiologically relevant levels on GLP-1 secretion by L-cells, and the ability of a commercially available LPAR antagonist to prevent this.
Experimental Protocol. Briefly, GLUTag cells were grown until 70-80% confluent. Complete medium (low glucose DMEM), containing fetal bovine serum, was replaced with medium containing charcoal-dextran treated serum, which removes lipids and hormones that could interfere with testing. Cells were then treated with medium containing either DMSO as vehicle control (0.1% v/v), 2.5 μM LPA, 10 μM LPAR antagonist, or a combination of the LPA species and inhibitors. For cells treated with both LPA plus LPAR inhibitor: cells were pre-treated with LPA for 30 minutes and then 10 uM LPAR inhibitor was added to the respective wells for a further 2 hours. For cells treated with LPA only, or vehicle only, the total treatment time was 2.5 hours. For cells treated with antagonist only, the treatment time was 2 hours.

[2] = test system: GLP-1; experiment: Circulating GLP-1 in mice injected with LPA, with or without LPAR antagonist pre-treatment; type: in vivo; conditions: for decrease in plasma GLP-1 levels after LPA injection / effect of LPA on circulating GLP-1 levels (words): 50 mg/kg i.p.; for decrease in plasma GLP-1 levels after LPA injection: 30 minutes later, n=3 (Example 3, FIG. 4); for effect of LPA on circulating GLP-1 levels (words): mice; for rescue of the fall in blood GLP-1 levels caused by LPA: serum at 30 min (Examples 6, 8); for blood GLP-1 with antagonist alone versus vehicles: no LPA
Procedure: We injected mice i.p. with vehicle (10% DMSO in isotonic saline) or 50 mg/kg of 1-oleoyl-2-hydroxy-LPA. Half of the mice injected with LPA were pre-injected with 5 mg/kg Ki-16425 10 minutes prior to receiving LPA. Thirty minutes later, samples of blood were taken by cardiac puncture, and circulating active GLP-1 levels in plasma were analysed by enzyme linked immunosorbent assay.
(§1) The experimental protocol was as follows: • 1. Mice were administered an LPAR antagonist drug, either by oral gavage (for BMS986020, SARI 00842, AM966, AM095, or H2L51863030), or by i.p. injection (for Ki-16425, and LPA2-antagonistl) at the doses indicated in the table below. • 2. Control mice were administered only the vehicle (a 10% DMSO solution) given via the same route as the comparison drug was administered. • 3. Ten minutes later, mice were injected i.p. either with isotonic saline, or with 50 mg/kg LPA. • 4. Thirty minutes later, mice were euthanized by cervical dyslocation, and blood was collected from the heart for preparation of serum that was stored at −80C until it was analyzed for total GLP-1 concentration by ELISA assay using a GLP-1 enzyme immunoassay kit.

[3] = test system: DPP4; experiment: DPP4 activity in GLUTag cells (fluorometric kit ab204722); type: cell-based, mouse; conditions: 2.5 uM 18:1-LPA
Procedure: Briefly, GLUTag cells were grown to produce the recommended quantity needed for the assay according to the manufacturer's protocol (ab204722 Dipeptidyl peptidase IV Activity Assay Kit (Fluorometric)), and then the wells were treated in media containing charcoal-stripped FBS (10%), with either nothing (no treatment control), or vehicle control (0.05% DMSO), or 2.5 uM 18:1-LPA for 30 minutes, and then the inhibitors (as indicated in the graph of FIG. 17) were added to the vehicle wells and the 2.5 uM 18:1-LPA wells at 10 uM concentrations, as indicated on the graph (FIG. 17), for an additional 2 hours. Cells were then harvested according to the manufacturer's protocol, and lysed using reagents from the kit. Charcoal-stripped FBS was used to remove lipids, including LPA, from serum. Experiments were also carried out wherein the FBS was not stripped with charcoal, and the results were not different.
According to the manufacturer, dipeptidyl peptidase IV (DPP4) Activity Assay Kit (Fluorometric) (ab204722) is an assay where DPP4 cleaves a substrate to release a quenched fluorescent group, AMC (7-Amino-4-Methyl Coumarin), which can be easily detected at Ex/Em=360/460 nm. This assay is rapid, simple, sensitive, and reliable, as well as, suitable for high throughput activity screening of DPP4. This kit detects DPP4 activity as low as 3 ρU per well.

[4] = test system: DPP4; experiment: DPP4 activity in serum of C57BI/6J mice; type: in vivo; conditions: 50 mg/kg 18:1-LPA i.p., serum 30 minutes later
Procedure: Mice were injected with 5 mg/kg Ki16425 or control (10% DMSO in isotonic saline), then injected 10 mins later with 50 mg/kg 1-18:1-LPA or saline (vehicle control), then euthanized 30 minutes later for serum collection and analysis.
as §1, with “(for” for “(for BMS986020,”, “00842” for “00842, AM966, AM095,”, “AM966),” for “H2L51863030),”, “Ki-16425)” for “Ki-16425, and LPA2-antagonistl)”, “18:1-LPA.” for “LPA.”

[5] = molecular target: LPAR1 (Homo sapiens, UniProt Q92633); conditions: cited from earlier work
[6] = molecular target: LPAR2 (Homo sapiens, UniProt Q9HBW0); conditions: cited from earlier work
[7] = molecular target: T1, LPAR3 (Homo sapiens, UniProt Q9UBY5); conditions: cited from earlier work
T1 sequence (Q9UBY5 1-353): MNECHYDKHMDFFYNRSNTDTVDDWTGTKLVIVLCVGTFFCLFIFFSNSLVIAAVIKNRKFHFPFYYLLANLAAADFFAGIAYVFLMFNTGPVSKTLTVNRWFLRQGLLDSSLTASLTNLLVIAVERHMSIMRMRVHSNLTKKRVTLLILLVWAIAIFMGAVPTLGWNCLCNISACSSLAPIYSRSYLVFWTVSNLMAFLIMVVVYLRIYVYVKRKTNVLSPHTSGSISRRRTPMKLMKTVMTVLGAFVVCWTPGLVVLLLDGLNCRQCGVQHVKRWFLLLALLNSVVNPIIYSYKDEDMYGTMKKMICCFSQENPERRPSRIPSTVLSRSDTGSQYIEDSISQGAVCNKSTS

[8] = antagonist 30 mg/kg by gavage 10 min before 50 mg/kg 18:1-LPA i.p.

Chain of LPAR2 (Q9HBW0 whole entry, species assumed): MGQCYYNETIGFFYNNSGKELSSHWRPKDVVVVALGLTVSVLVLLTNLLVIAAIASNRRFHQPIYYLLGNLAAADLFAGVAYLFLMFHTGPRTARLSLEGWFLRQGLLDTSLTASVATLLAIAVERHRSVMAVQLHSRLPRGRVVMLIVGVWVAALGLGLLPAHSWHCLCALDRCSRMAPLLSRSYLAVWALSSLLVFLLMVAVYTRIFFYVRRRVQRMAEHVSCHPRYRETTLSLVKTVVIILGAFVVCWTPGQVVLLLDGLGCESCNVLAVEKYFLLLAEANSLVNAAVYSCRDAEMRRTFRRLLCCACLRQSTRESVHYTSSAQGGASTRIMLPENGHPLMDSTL
Chain of LPAR1 (Q92633 whole entry, species assumed): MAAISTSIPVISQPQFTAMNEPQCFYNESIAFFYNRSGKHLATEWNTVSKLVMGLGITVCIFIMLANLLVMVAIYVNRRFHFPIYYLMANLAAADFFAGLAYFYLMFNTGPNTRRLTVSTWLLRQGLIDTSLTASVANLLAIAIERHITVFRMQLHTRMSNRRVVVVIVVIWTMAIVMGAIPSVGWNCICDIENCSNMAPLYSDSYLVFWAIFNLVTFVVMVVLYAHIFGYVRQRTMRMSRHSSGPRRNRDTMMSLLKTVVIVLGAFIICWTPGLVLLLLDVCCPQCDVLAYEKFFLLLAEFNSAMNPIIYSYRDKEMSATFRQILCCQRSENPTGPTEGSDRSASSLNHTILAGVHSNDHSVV

CCCCCCCCCCCCCCCC(=O)OCC(O)COP(=O)(O)O (stereo not drawn) [1-palmitoyl-2-hydroxy-LPA]
decrease in GLP-1 secretion / level caused by LPA (fraction) ([1]; 2.5 μM LPA): over 2/3

CCCCCCCCCCCCCCCCCC(=O)OCC(O)COP(=O)(O)O (stereo not drawn) [1-stearoyl-2-hydroxy-LPA]
decrease in GLP-1 secretion / level caused by LPA (fraction) ([1]; 2.5 μM LPA): over 2/3

CCCCCCCC/C=C\CCCCCCCC(=O)OC[C@@H](O)COP(=O)(O)O [18:1-LPA, 1-oleoyl-2-hydroxy-LPA]
decrease in GLP-1 secretion / level caused by LPA (fraction) ([1]; 2.5 μM LPA): > 2/3
decrease in GLP-1 secretion / level caused by LPA (fraction) ([1]; 2.5 μM LPA, listed as 1-oleoyl-2-hydroxy-LPA): over 2/3
decrease in plasma GLP-1 levels after LPA injection [2]: ~60%
decrease in plasma GLP-1 levels after LPA injection ([2]; listed as 1-18:1-LPA): over 60%
effect of LPA on circulating GLP-1 levels (words) [2]: decreased
effect of LPA on circulating GLP-1 levels (words) ([2]; listed as 1-oleoyl-2-hydroxy-LPA): decreases circulating GLP-1 levels
effect of LPA on DPP4 activity in GLUTag cells [3]: did not significantly reduce
effect of LPA on DPP4 activity in mouse serum [4]: did not affect

CCCCC/C=C\C/C=C\CCCCCCCC(=O)OCC(O)COP(=O)(O)O (stereo not drawn) [18:2-LPA, 1-linoleoyl-2-hydroxy-LPA]
effect of LPA on GLP-1 secretion ([1]; 2.5 μM LPA): decreases GLP-1 secretion
decrease in GLP-1 secretion / level caused by LPA (fraction) ([1]; 2.5 μM LPA): > 2/3
decrease in GLP-1 secretion / level caused by LPA (fraction) ([1]; 2.5 μM LPA, listed as 1-linoleoyl-2-hydroxy-LPA): over 2/3

Cc1noc(-c2ccc(-c3ccc(C4(C(=O)O)CC4)cc3)cc2)c1NC(=O)O[C@H](C)c1ccccc1 [BMS-986020]
effect of LPAR antagonist alone on GLP-1 levels [1]: no significant effect
rescue of LPA-inhibited GLP-1 secretion by LPAR antagonist [1]: partially rescued
rescue of LPA-inhibited GLP-1 secretion by LPAR antagonist ([1]; listed as BMS986020): did significantly restore GLP-1 secretion
rescue of the fall in blood GLP-1 levels caused by LPA [2, 8]: did not significantly rescue
blood GLP-1 with antagonist alone versus vehicles ([2]; antagonist 30 mg/kg by gavage): indistinguishable from mice treated only with the vehicles
Ki [5]: < 0.3 µM
IC50 ([5]; read-out: IC50 for LPAR1): < 0.3 µM

O=C(O)/C=C\C(=O)Nc1ccc(Oc2cccc(Oc3ccc(NC(=O)/C=C\C(=O)O)cc3)c2)cc1 [H2L5186303]
effect of LPAR antagonist alone on GLP-1 levels [1]: no significant effect; also recorded: did not significantly affect
rescue of LPA-inhibited GLP-1 secretion by LPAR antagonist [1]: partially rescued
rescue of the fall in blood GLP-1 levels caused by LPA [2, 8]: partially rescued; also recorded: partial rescue
blood GLP-1 with antagonist alone versus vehicles ([2]; antagonist 30 mg/kg by gavage): slightly, but significantly lower
Ki [5]: 27 µM
IC50 ([5]; read-out: IC50 for LPAR1): 27.4 µM
IC50 [6]: 0.0089 µM
Ki [6]: 0.0089 µM
Ki [7]: ~5 µM
IC50 ([7]; read-out: IC50 for LPAR3): 4.5 µM

Cc1csc2c(N[C@@H](C)CN3CCN(S(=O)(=O)c4ccc(Cl)c(Cl)c4)CC3)ncnc12 [LPA2-antagonist 1]
effect of LPAR antagonist alone on GLP-1 levels [1]: no significant effect
effect of LPAR antagonist alone on GLP-1 levels ([1]; listed as LPA2-antagonist): did not significantly reduce
rescue of LPA-inhibited GLP-1 secretion by LPAR antagonist [1]: complete rescue
rescue of LPA-inhibited GLP-1 secretion by LPAR antagonist ([1]; listed as LPA2-antagonist): significantly increased
rescue of the fall in blood GLP-1 levels caused by LPA ([2]; antagonist 5 mg/kg i.p. 10 min before 50 mg/kg 18:1-LPA i.p.): lack of rescue
rescue of the fall in blood GLP-1 levels caused by LPA ([2]; antagonist 5 mg/kg i.p. 10 min before 50 mg/kg 18:1-LPA i.p., listed as LPA2-antagonist): did not significantly rescue
blood GLP-1 with antagonist alone versus vehicles ([2]; antagonist 5 mg/kg i.p.): slightly, but significantly lower
IC50 ([5]; read-out: IC50 for LPAR1): > 50 µM
IC50 ([5]; read-out: IC50 with LPAR1): > 50 µM
IC50 [6]: 0.017 µM
IC50 ([7]; read-out: IC50 for LPAR3): > 50 µM
IC50 ([7]; read-out: IC50 with LPAR3): > 50 µM
